This note sets out measurements from US20050032787A1, “Pheny (alkyl)carboxylic acid derivatives and dionic phenylalkylheterocyclic derivatives and their use as medicines with serum glucose and/or serum lipid lowering activity” (priority 2002, published 2005).

Counter-ions that a name gives are not always drawn. Marks after values point to notes of the source that are not given here.

One series has as its system C57BL/KsJ db/db mice. Kind of series: Antidiabetic and serum lipid lowering activity in db/db mice. Particulars: oral twice daily for a fortnight, rosiglitazone 5 mg/kg, Example 22 25 mg/kg, vs control; for Reduction of glucose levels % / Reduction of triglyceride levels %: serum 7 hours after last treatment; for Change in GPT levels % / Change in HDL-cholesterol levels %: serum.

A further series has as its system 3T3-L1 cells. Kind of series: Determination of glucose consumption in differentiated 3T3-L1 cells. In kind it is cell-based, mouse. Particulars: 22 hours, glucose 25 mM, insulin 0.25 nM, concentrations assayed 1, 5, 10, 25 μM. How it is done: Determination of Glucose Consumption in 3T3-L1 Cells
Glucose consumption was assessed in differentiated 3T3-L1 cells.
Mouse fibroblasts (3T3-L1) were seeded at a density of 5×10^3/cm^2 and cultured on 12-well plates in 1 ml of DMEM containing glucose 25 mM and added with 10% CS, glutamine 4 mM, pyruvate 1 mM, penicillin 50 U/ml, and streptomycin 50 μg/ml, in an atmosphere humidified with 5% CO2 at 37° C.
Two to three days after confluence, differentiation was induced with the addition of 1.5 ml of DMEM containing 3-isobutyl-1-methylxanthine (IBMX) 0.5 mM, dexamethazone 1 μM and porcine insulin 10 μg/ml in glucose 25 mM and 10% FBS.
After 2 days, the cells were exposed to the same medium without IBMX and dexamethazone for another 2 days. […]
The cells were used 10-12 days after induction of differentiation, as monitored by evaluating triglyceride accumulation. […]
The analysis of the glucose in the medium was done with the aid of a Cobas Mira S autoanalyzer (Roche), using the HK 125 Glucose Kit (ABX Diagnostics). The glucose concumprion stimulated by the products was evaluated as % increase compared to the control compound. […]

The term melting point denotes the temperature, or range, at which the solid turns liquid. As to `CCOC(=O)[C@H](Cc1ccc(OC(=O)NCc2ccc(OC)cc2)cc1)NC(=O)c1ccccc1`, the melting point is 149 to 151 °C.

Take `COC(=O)C(Cc1ccc(OC(=O)Nc2ccc(Cl)cc2Cl)cc1)C(=O)OC`: the melting point came out at 84 °C. Still for that read-out and setting: the same measure for `COC(=O)C(Cc1ccc(OC(=O)Nc2ccc(Cl)cc2)cc1)C(=O)OC`: 125 to 127 °C; for `COC(=O)C(Cc1ccc(OC(=O)Nc2ccc([N+](=O)[O-])cc2)cc1)C(=O)OC`: 128 to 130 °C. On to `COC(=O)C(Cc1cccc(OC(=O)NCc2ccc(OC)cc2)c1)C(=O)OC`, for which the melting point is 62 to 64 °C. On the same count and under the same terms, to `CCCCc1ccc(NC(=O)Oc2ccc(CC(C(=O)OC)C(=O)OC)cc2)cc1` belongs 90 to 92 °C; to `COC(=O)C(Cc1cccc(OC(=O)Nc2ccc(Cl)cc2)c1)C(=O)OC`, 79 to 80 °C; to `COC(=O)C(Cc1ccc(OC(=O)NCc2ccc(OC)cc2)cc1)C(=O)OC` (as salt: malonate), 78.6 °C. Molecule `COC(=O)C(=Cc1ccc(OCCn2ccc3ccccc32)cc1)C(=O)OC` [Example 3, dimethyl 4-[2-(1-indolyl]ethoxy]benzylidenemalonate] showed a melting point of 68 to 70 °C.

On to `O=C(O)C(Cc1ccc(OCCn2ccc3ccccc32)cc1)C(=O)O` [Example 5, 4-[2-(1-indolyl)ethoxy]benzylmalonic acid], for which the melting point was in the range of 112 to 114 °C.

The molecule `COC(=O)CCc1ccc(OCCn2ccc3ccccc32)cc1` [Example 8, methyl 3-[4-[2-(1-indolyl)ethoxy]phenyl]-propanoate] had a melting point of 85 °C.

In the case of `COC(=O)Cc1ccc(OCCn2ccc3ccccc32)cc1` [Example 9, methyl 2-[4-[2-(1-indolyl)ethoxy]phenyl]acetate], the melting point lay in the range of 50 to 52 °C. Regarding `COC(=O)C(O)Cc1ccc(OCCn2ccc3ccccc32)cc1` (centres unmarked) [Example 12, methyl 2-hydroxy-3-[4-[2-(1-indolyl)ethoxy]-phenyl]propanoate], the melting point fell in the range of 70 to 72 °C. The same measure, in the same setting: the same measure for `O=C1NC(=O)C(=Cc2ccc(OCCc3ccc(Cl)cc3)cc2)S1` [Example 20, 5-[4-[2-(4-chlorophenyl)ethoxy]phenylmethylene]thiazolidine-2,4-dione]: 202 to 203 °C; for `O=C1NC(=O)C(Cc2ccc(OCCc3ccc(Cl)cc3)cc2)S1` (centres unmarked) [Example 21, 5-[4-[2-(4-chlorophenyl)ethoxy]phenylmethyl]-thiazolidine-2,4-dione]: 147 to 148 °C.

Turning to `COC(=O)C(Cc1cccc(OCCc2ccc(Cl)cc2)c1)C(=O)OC` [Example 22, dimethyl 3-[2-(4-chlorophenyl)ethoxy]-benzylmalonate], in the series with C57BL/KsJ db/db mice, the Weight gain % entry is reported as “+16 ▴ %”, the “Reduction of glucose levels %” value is on record as −32 Δ %, the “Reduction of triglyceride levels %” value is on record as −47 ▴ % and the “Change in GPT levels %” value is reported as “+38 ▴ %”. Further, the “Change in HDL-cholesterol levels %” value in the series with C57BL/KsJ db/db mice is “+37 ▴ %”. In the series on 3T3-L1 cells, the “lowest concentration of those assayed to induce a 40% increase in glucose consumption” value is 1 µM. Molecule `COC(=O)C(Cc1ccc(OCCc2ccc3ccccc3c2)cc1)C(=O)OC` [Example 29, dimethyl 4-[2-(2-naphthyl)ethoxy]benzyl-malonate] had a melting point of 68.5 °C. On the same count and under the same terms, to `O=C1NC(=O)C(=Cc2cccc(OCCc3ccc(Cl)cc3)c2)S1` [Example 46, 5-[3-[2-(4-chlorophenyl)ethoxy]phenylmethylene]thiazolidine-2,4-dione] belongs 186 to 187 °C; to `O=C1NC(=O)C(Cc2cccc(OCCc3ccc(Cl)cc3)c2)S1` (centres unmarked) [Example 47, 5-[3-[2-(4-chlorophenyl)ethoxy]phenylmethyl]thiazolidine-2,4-dione], 90 to 91 °C. With `CN(CCOc1ccc(CC2SC(=O)NC2=O)cc1)c1ccccn1` (centres unmarked) [Rosiglitazone, rosiglitazone, reference compound], in the series on C57BL/KsJ db/db mice, the “Reduction of glucose levels %” value is −36 Δ %, the “Reduction of triglyceride levels %” value is −41 ▴ %, the “Change in GPT levels %” value is “+117 ▴ %” and the “Change in HDL-cholesterol levels %” value is listed as −7%. The “lowest concentration of those assayed to induce a 40% increase in glucose consumption” value in the series on 3T3-L1 cells was 5 µM.
